These results are taken from US20240209028A1, “CNP COMPOUNDS” (priority 2022, published 2024).

Each structure is given as a SMILES string. Starred links: 1 amine or outer side, 2 acyl side, 3 side chain; linkers in the order of their positions; H or OH if unused. Positions of bridges follow the written chain, without caps; N, C: chain ends. Residues, ends and D or L forms follow the SMILES beside them. *: point of attachment. C18 diacid = O=C(O)CCCCCCCCCCCCCCCCC(=O)*; γGlu = O=C(O)[C@H](CCC(=O)[*:2])N[*:1]; AEEA = NCCOCCOCC(=O)O

The target of this assay is T1, human natriuretic peptide receptor 2 (hNPR2) (Homo sapiens, UniProt P20594).
T1 construct: expressed in transfected cells; host or cells: HEK293 (ATCC CRL-1573), clone 35, co-transfected with pGloSensor-42F
T1 sequence (P20594 23-1047): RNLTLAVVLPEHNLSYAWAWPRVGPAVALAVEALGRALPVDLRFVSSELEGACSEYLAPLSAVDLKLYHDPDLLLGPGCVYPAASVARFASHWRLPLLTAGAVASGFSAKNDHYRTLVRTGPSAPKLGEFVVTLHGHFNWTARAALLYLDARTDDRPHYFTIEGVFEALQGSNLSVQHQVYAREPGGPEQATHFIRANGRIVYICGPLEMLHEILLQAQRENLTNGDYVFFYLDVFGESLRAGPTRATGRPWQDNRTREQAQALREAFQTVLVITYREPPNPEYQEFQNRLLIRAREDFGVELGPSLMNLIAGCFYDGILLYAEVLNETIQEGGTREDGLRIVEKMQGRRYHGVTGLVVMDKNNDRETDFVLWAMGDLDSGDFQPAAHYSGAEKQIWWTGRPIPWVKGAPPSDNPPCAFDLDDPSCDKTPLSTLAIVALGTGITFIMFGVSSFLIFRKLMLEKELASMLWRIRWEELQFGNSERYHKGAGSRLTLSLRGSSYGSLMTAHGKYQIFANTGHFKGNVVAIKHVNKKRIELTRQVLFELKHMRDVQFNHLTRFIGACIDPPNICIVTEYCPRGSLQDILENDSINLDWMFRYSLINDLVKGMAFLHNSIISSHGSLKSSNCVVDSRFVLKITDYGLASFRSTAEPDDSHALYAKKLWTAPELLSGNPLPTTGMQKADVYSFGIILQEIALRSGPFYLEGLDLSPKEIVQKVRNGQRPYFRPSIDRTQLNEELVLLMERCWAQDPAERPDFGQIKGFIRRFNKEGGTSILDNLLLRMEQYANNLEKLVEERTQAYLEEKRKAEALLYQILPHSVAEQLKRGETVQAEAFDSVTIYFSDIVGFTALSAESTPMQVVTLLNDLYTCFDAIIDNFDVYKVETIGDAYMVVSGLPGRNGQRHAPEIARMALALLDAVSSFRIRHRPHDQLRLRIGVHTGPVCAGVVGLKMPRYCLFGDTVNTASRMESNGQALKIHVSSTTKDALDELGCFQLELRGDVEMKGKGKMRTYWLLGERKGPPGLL
In words: In vitro hNPR2 activity assay (cGMP GloSensor reporter, HEK293). In kind it is cell-based. The conditions noted are these: for EC50: 0% HSA, HEK293-hNPR2/GloSensor cells; for hNPR2 0% HSA. [EC50% rel CNP]: potency relative to CNP22 (0065). Put shortly: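 Potency is the EC50 from a four-parameter logistic fit, also expressed relative to the in-plate CNP22 control (×100), with at least two replicates. Compounds (ten concentrations, […], HSA-free diluent with 1% OVA, 0.01% Tween20) were incubated 30 min at 37 °C on HEK293 cells co-expressing hNPR2 and a GloSensor cGMP luciferase. Luminescence detected with Bright-Glo.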

For `CC[C@H](C)[C@@H]1NC(=O)[C@H](CCCNC(=N)N)NC(=O)[C@H](CCC(=O)O)NC(=O)[C@H](CC(C)C)NC(=O)[C@H](CCCCN)NC(=O)[C@H](CC(C)C)NC(=O)CNC(=O)[C@H](Cc2ccccc2)NC(=O)[C@@H](NC(=O)CNC(=O)[C@H](CCCCN)NC(=O)[C@H](CO)NC(=O)[C@H](CC(C)C)NC(=O)CNC(=O)[C@H](Cc2c[nH]cn2)NC(=O)[C@H](Cc2c[nH]cn2)NC(=O)[C@H](CCC(N)=O)NC(=O)[C@H](C)NC(=O)CNC(=O)[C@H](Cc2c[nH]cn2)NC(=O)[C@H](Cc2ccc(O)cc2)NC(=O)COCCOCCNC(=O)COCCOCCNC(=O)CC[C@H](NC(=O)CCCCCCCCCCCCCCCCC(=O)O)C(=O)O)CSSC[C@@H](C(=O)O)NC(=O)CNC(=O)[C@H](CC(C)C)NC(=O)CNC(=O)[C@H](CO)NC(=O)[C@H](CC(C)C)NC(=O)[C@H](CO)NC(=O)CNC1=O` [compound 1322] ({C18 diacid-γGlu-AEEA-AEEA}-YHGAQHHGLSKGCFGLKLERIGSLSGLGC-OH; disulfide 13-29; C-terminus assumed), a half-maximal effect (EC50) was put at 4.73 nM and the “hNPR2 0% HSA. [EC50% rel CNP]” value is recorded as 1.9%.
In the same order, the values of `CC[C@H](C)[C@@H]1NC(=O)[C@H](CCCNC(=N)N)NC(=O)[C@H](CCC(=O)O)NC(=O)[C@H](CC(C)C)NC(=O)[C@H](CCCCN)NC(=O)[C@H](CC(C)C)NC(=O)CNC(=O)[C@H](Cc2ccccc2)NC(=O)[C@@H](NC(=O)CNC(=O)[C@H](CCCCN)NC(=O)[C@H](CO)NC(=O)[C@H](CC(C)C)NC(=O)CNC(=O)[C@H](Cc2c[nH]cn2)NC(=O)[C@H](Cc2c[nH]cn2)NC(=O)[C@H](CCC(N)=O)NC(=O)[C@H](C)NC(=O)CNC(=O)[C@H](Cc2c[nH]cn2)NC(=O)[C@H](Cc2ccc(O)cc2)NC(=O)COCCOCCNC(=O)COCCOCCNC(=O)CC[C@H](NC(=O)CC[C@H](NC(=O)CCCCCCCCCCCCCCCCC(=O)O)C(=O)O)C(=O)O)CSSC[C@@H](C(=O)O)NC(=O)CNC(=O)[C@H](CC(C)C)NC(=O)CNC(=O)[C@H](CO)NC(=O)[C@H](CC(C)C)NC(=O)[C@H](CO)NC(=O)CNC1=O` [compound 1323] ({C18 diacid-γGlu-γGlu-AEEA-AEEA}-YHGAQHHGLSKGCFGLKLERIGSLSGLGC-OH; disulfide 13-29; C-terminus assumed) are 11.2 nM and 0.8%.
As for `CC[C@H](C)[C@@H]1NC(=O)[C@H](CCCNC(=N)N)NC(=O)[C@H](CCC(=O)O)NC(=O)[C@H](CC(C)C)NC(=O)[C@H](CCCCN)NC(=O)[C@H](CC(C)C)NC(=O)CNC(=O)[C@H](Cc2ccccc2)NC(=O)[C@@H](NC(=O)CNC(=O)[C@H](CCC(N)=O)NC(=O)[C@H](CO)NC(=O)[C@H](CC(C)C)NC(=O)CNC(=O)[C@H](Cc2c[nH]cn2)NC(=O)[C@H](Cc2c[nH]cn2)NC(=O)[C@H](CCC(N)=O)NC(=O)[C@H](C)NC(=O)CNC(=O)[C@H](CCCCN)NC(=O)[C@H](Cc2ccc(O)cc2)NC(=O)COCCOCCNC(=O)COCCOCCNC(=O)CC[C@H](NC(=O)CC[C@H](NC(=O)CCCCCCCCCCCCCCCCC(=O)O)C(=O)O)C(=O)O)CSSC[C@@H](C(=O)O)NC(=O)CNC(=O)[C@H](CC(C)C)NC(=O)CNC(=O)[C@H](CO)NC(=O)[C@H](CC(C)C)NC(=O)[C@H](CO)NC(=O)CNC1=O` [compound 1324] ({C18 diacid-γGlu-γGlu-AEEA-AEEA}-YKGAQHHGLSQGCFGLKLERIGSLSGLGC-OH; disulfide 13-29), the concentration giving a half-maximal response (EC50) amounted to 5.51 nM and the “hNPR2 0% HSA. [EC50% rel CNP]” value stood at 1.6%.
Take `CC[C@H](C)[C@@H]1NC(=O)[C@H](CCCNC(=N)N)NC(=O)[C@H](CCC(=O)O)NC(=O)[C@H](CC(C)C)NC(=O)[C@@H]2CCCN2C(=O)[C@H](CC(C)C)NC(=O)CNC(=O)[C@H](Cc2ccccc2)NC(=O)[C@@H](NC(=O)CNC(=O)[C@H](CO)NC(=O)[C@H](CO)NC(=O)[C@H](CC(C)C)NC(=O)CNC(=O)[C@H](CCCCN)NC(=O)[C@H](CCCCN)NC(=O)[C@H](CCC(N)=O)NC(=O)[C@H](C)NC(=O)CNC(=O)[C@H](CCC(=O)O)NC(=O)[C@H](Cc2ccc(O)cc2)NC(=O)COCCOCCNC(=O)COCCOCCNC(=O)CC[C@H](NC(=O)CCCCCCCCCCCCCCCCC(=O)O)C(=O)O)CSSC[C@@H](C(=O)O)NC(=O)CNC(=O)[C@H](CC(C)C)NC(=O)CNC(=O)[C@H](CO)NC(=O)[C@H](CC(C)C)NC(=O)[C@H](CO)NC(=O)CNC1=O` [compound 1338] ({C18 diacid-γGlu-AEEA-AEEA}-YEGAQKKGLSSGCFGLPLERIGSLSGLGC-OH; disulfide 13-29): the EC50 came out at 6.77 nM and the “hNPR2 0% HSA. [EC50% rel CNP]” value worked out at 1.3%.
Take `CC[C@H](C)[C@@H]1NC(=O)[C@H](CCCNC(=N)N)NC(=O)[C@H](CC(=O)O)NC(=O)[C@H](CC(C)C)NC(=O)[C@@H]2CCCN2C(=O)[C@H](CC(C)C)NC(=O)CNC(=O)[C@H](Cc2ccccc2)NC(=O)[C@@H](NC(=O)CNC(=O)[C@H](CO)NC(=O)[C@H](CO)NC(=O)[C@H](CC(C)C)NC(=O)CNC(=O)[C@H](CCCCN)NC(=O)[C@H](CCCCN)NC(=O)[C@H](CCC(N)=O)NC(=O)[C@H](C)NC(=O)CNC(=O)[C@H](CCC(=O)O)NC(=O)COCCOCCNC(=O)COCCOCCNC(=O)CC[C@H](NC(=O)CCCCCCCCCCCCCCCCC(=O)O)C(=O)O)CSSC[C@@H](C(=O)O)NC(=O)CNC(=O)[C@H](CC(C)C)NC(=O)CNC(=O)[C@H](CO)NC(=O)[C@H](CC(C)C)NC(=O)[C@H](CO)NC(=O)CNC1=O` [compound 1339] ({C18 diacid-γGlu-AEEA-AEEA}-EGAQKKGLSSGCFGLPLDRIGSLSGLGC-OH; disulfide 12-28): the “hNPR2 0% HSA. [EC50% rel CNP]” value is listed as 15.5%.
As for `CC[C@H](C)[C@@H]1NC(=O)[C@H](CCCNC(=N)N)NC(=O)[C@H](CC(=O)O)NC(=O)[C@H](CC(C)C)NC(=O)[C@H](CCCCN)NC(=O)[C@H](CC(C)C)NC(=O)CNC(=O)[C@H](Cc2ccccc2)NC(=O)[C@@H](NC(=O)CNC(=O)[C@H](CCC(N)=O)NC(=O)[C@H](CO)NC(=O)[C@H](CC(C)C)NC(=O)CNC(=O)[C@H](Cc2c[nH]cn2)NC(=O)[C@H](Cc2c[nH]cn2)NC(=O)[C@H](CCC(N)=O)NC(=O)[C@H](C)NC(=O)CNC(=O)[C@H](CCCCN)NC(=O)[C@H](Cc2ccc(O)cc2)NC(=O)COCCOCCNC(=O)COCCOCCNC(=O)CC[C@H](NC(=O)CCCCCCCCCCCCCCCCC(=O)O)C(=O)O)CSSC[C@@H](C(=O)O)NC(=O)CNC(=O)[C@H](CC(C)C)NC(=O)CNC(=O)[C@H](CO)NC(=O)[C@H](CC(C)C)NC(=O)[C@H](CO)NC(=O)CNC1=O` [compound 1340] ({C18 diacid-γGlu-AEEA-AEEA}-YKGAQHHGLSQGCFGLKLDRIGSLSGLGC-OH; disulfide 13-29), the EC50 is 0.18 nM and the “hNPR2 0% HSA. [EC50% rel CNP]” value is 44.4%.
On to `CC[C@H](C)[C@@H]1NC(=O)[C@H](CCCNC(=N)N)NC(=O)[C@H](CC(=O)O)NC(=O)[C@H](CC(C)C)NC(=O)[C@@H]2CCCN2C(=O)[C@H](CC(C)C)NC(=O)CNC(=O)[C@H](Cc2ccccc2)NC(=O)[C@@H](NC(=O)CNC(=O)[C@H](CCC(N)=O)NC(=O)[C@H](CO)NC(=O)[C@H](CC(C)C)NC(=O)CNC(=O)[C@H](Cc2c[nH]cn2)NC(=O)[C@H](Cc2c[nH]cn2)NC(=O)[C@H](CCC(N)=O)NC(=O)[C@H](C)NC(=O)CNC(=O)[C@H](CCCCN)NC(=O)[C@H](Cc2ccc(O)cc2)NC(=O)COCCOCCNC(=O)COCCOCCNC(=O)CC[C@H](NC(=O)CCCCCCCCCCCCCCCCC(=O)O)C(=O)O)CSSC[C@@H](C(=O)O)NC(=O)CNC(=O)[C@H](CC(C)C)NC(=O)CNC(=O)[C@H](CO)NC(=O)[C@H](CC(C)C)NC(=O)[C@H](CO)NC(=O)CNC1=O` [compound 1341] ({C18 diacid-γGlu-AEEA-AEEA}-YKGAQHHGLSQGCFGLPLDRIGSLSGLGC-OH; disulfide 13-29; C-terminus assumed), for which the “hNPR2 0% HSA. [EC50% rel CNP]” value is listed as 16.7%.
